From PubChem BioAssay (NCI)
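These data come from cells grown in 96-well plates and exposed to compound for 48 hours at five concentrations. GI50 is the concentration that inhibits growth by half. At the TGI there is no net growth.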

How the values were obtained:
Experiment in all cases: NCI-60 cell line screen, 48 h
MDA-MB-231 breast = system: MDA-MB-231 breast
HOP-62 NSCLC = system: HOP-62 NSCLC
M14 melanoma = system: M14 melanoma
OVCAR-5 ovarian = system: OVCAR-5 ovarian
SR leukemia = system: SR leukemia
KM12 colon = system: KM12 colon
HOP-92 NSCLC = system: HOP-92 NSCLC
SNB-75 CNS = system: SNB-75 CNS
UO-31 renal = system: UO-31 renal
ACHN renal = system: ACHN renal
OVCAR-4 ovarian = system: OVCAR-4 ovarian
K-562 leukemia = system: K-562 leukemia
786-0 renal = system: 786-0 renal
U251 CNS = system: U251 CNS
MALME-3M melanoma = system: MALME-3M melanoma
RPMI-8226 leukemia = system: RPMI-8226 leukemia
SK-MEL-5 melanoma = system: SK-MEL-5 melanoma
OVCAR-8 ovarian = system: OVCAR-8 ovarian
HCC-2998 colon = system: HCC-2998 colon
HS 578T breast = system: HS 578T breast
HCT-15 colon = system: HCT-15 colon
SK-OV-3 ovarian = system: SK-OV-3 ovarian
TK-10 renal = system: TK-10 renal
CAKI-1 renal = system: CAKI-1 renal
SF-539 CNS = system: SF-539 CNS
NCI-H226 lung = system: NCI-H226 lung
SK-MEL-2 melanoma = system: SK-MEL-2 melanoma
SF-268 CNS = system: SF-268 CNS
NCI-H23 lung = system: NCI-H23 lung
HL-60(TB) leukemia = system: HL-60(TB) leukemia
PC-3 prostate = system: PC-3 prostate
CCRF-CEM leukemia = system: CCRF-CEM leukemia
MDA-MB-435 = system: MDA-MB-435
NCI-H522 lung = system: NCI-H522 lung
A498 renal = system: A498 renal
DU-145 prostate = system: DU-145 prostate
A549 NSCLC = system: A549 NSCLC
SNB-19 CNS = system: SNB-19 CNS
NCI/ADR-RES ovarian = system: NCI/ADR-RES ovarian
T-47D breast = system: T-47D breast
MCF7 breast = system: MCF7 breast
UACC-257 melanoma = system: UACC-257 melanoma
SF-295 CNS = system: SF-295 CNS
SW-620 colon = system: SW-620 colon
SN12C renal = system: SN12C renal
COLO 205 colon = system: COLO 205 colon
NCI-H460 lung = system: NCI-H460 lung
BT-549 breast = system: BT-549 breast
OVCAR-3 ovarian = system: OVCAR-3 ovarian
HT29 colon = system: HT29 colon
MOLT-4 leukemia = system: MOLT-4 leukemia
SK-MEL-28 melanoma = system: SK-MEL-28 melanoma

## COCCNCC(O)Cn1c2ccc(Cl)cc2c2cc(Cl)ccc21 (centres undefined)
MDA-MB-231 breast
  GI50: 1.67 µM
  TGI: 3.4 µM
HOP-62 NSCLC
  GI50: 1.87 µM
  TGI: 3.45 µM
M14 melanoma
  GI50: 2.06 µM
  TGI: 4.16 µM
OVCAR-5 ovarian
  GI50: 2.15 µM
  TGI: 5.23 µM
SR leukemia
  GI50: 2.98 µM
  TGI: 6.92 µM
KM12 colon
  GI50: 1.9 µM
  TGI: 3.42 µM
HOP-92 NSCLC
  GI50: 1.57 µM
  TGI: 5.17 µM
SNB-75 CNS
  GI50: 1.12 µM
  TGI: 4.15 µM
UO-31 renal
  GI50: 1.75 µM
  TGI: 4.17 µM
ACHN renal
  GI50: 1.87 µM
  TGI: 3.76 µM
OVCAR-4 ovarian
  GI50: 2.01 µM
  TGI: 5.2 µM
K-562 leukemia
  GI50: 2.19 µM
  TGI: 4.64 µM
786-0 renal
  GI50: 1.8 µM
  TGI: 3.42 µM
U251 CNS
  GI50: 1.94 µM
  TGI: 3.93 µM
MALME-3M melanoma
  GI50: 1.98 µM
  TGI: 3.89 µM
RPMI-8226 leukemia
  GI50: 2.14 µM
  TGI: 5.25 µM
SK-MEL-5 melanoma
  GI50: 1.71 µM
  TGI: 3.18 µM
OVCAR-8 ovarian
  GI50: 2.06 µM
  TGI: 5.08 µM
HCC-2998 colon
  GI50: 1.81 µM
  TGI: 3.45 µM
HS 578T breast
  GI50: 1.99 µM
  TGI: 5.51 µM
HCT-15 colon
  GI50: 2.06 µM
  TGI: 5 µM
SK-OV-3 ovarian
  GI50: 2.46 µM
  TGI: 5.93 µM
TK-10 renal
  GI50: 1.79 µM
  TGI: 3.37 µM
CAKI-1 renal
  GI50: 1.7 µM
  TGI: 3.36 µM
SF-539 CNS
  GI50: 1.8 µM
  TGI: 3.43 µM
NCI-H226 lung
  GI50: 2.25 µM
  TGI: 5.92 µM
SK-MEL-2 melanoma
  GI50: 2.16 µM
  TGI: 4.18 µM
SF-268 CNS
  GI50: 1.79 µM
  TGI: 3.48 µM
NCI-H23 lung
  GI50: 2.1 µM
  TGI: 4.7 µM
HL-60(TB) leukemia
  GI50: 2.05 µM
  TGI: 4.51 µM
PC-3 prostate
  GI50: 1.75 µM
  TGI: 3.81 µM
CCRF-CEM leukemia
  GI50: 1.92 µM
  TGI: 4.25 µM
MDA-MB-435
  GI50: 1.7 µM
  TGI: 3.19 µM
NCI-H522 lung
  GI50: 2.03 µM
  TGI: 3.89 µM
A498 renal
  GI50: 1.73 µM
  TGI: 5.32 µM
DU-145 prostate
  GI50: 2.12 µM
  TGI: 4.05 µM
A549 NSCLC
  GI50: 1.79 µM
  TGI: 3.74 µM
SNB-19 CNS
  GI50: 3.48 µM
  TGI: 16.6 µM
NCI/ADR-RES ovarian
  GI50: 2.39 µM
  TGI: 5.59 µM
T-47D breast
  GI50: 1.97 µM
  TGI: 4.03 µM
MCF7 breast
  GI50: 1.81 µM
  TGI: 3.49 µM
UACC-257 melanoma
  GI50: 1.68 µM
  TGI: 3.35 µM
SF-295 CNS
  GI50: 1.93 µM
  TGI: 4.28 µM
SW-620 colon
  GI50: 1.83 µM
  TGI: 3.64 µM
SN12C renal
  GI50: 1.94 µM
  TGI: 4.46 µM
COLO 205 colon
  GI50: 2.08 µM
  TGI: 3.83 µM
NCI-H460 lung
  GI50: 1.86 µM
  TGI: 3.6 µM
BT-549 breast
  GI50: 2.06 µM
  TGI: 4.36 µM
OVCAR-3 ovarian
  GI50: 1.95 µM
  TGI: 3.66 µM
HT29 colon
  GI50: 2.23 µM
  TGI: 4.24 µM
MOLT-4 leukemia
  GI50: 1.97 µM
  TGI: 4.05 µM
SK-MEL-28 melanoma
  GI50: 1.73 µM
  TGI: 3.25 µM
